Measured values reported in US10052310B2, “Separase inhibitors and uses thereof” (Baylor College of Medicine, priority 2013, dated 2018).

Columns and labels:
[1] = test system: Separase overexpressing primary pediatric glioblastoma samples; experiment: MTT cytotoxicity assays in primary pediatric glioblastoma samples; assay type: cell-based; details: two Separase overexpressing primary pediatric glioblastoma samples
Protocol: FIG. 10 provides data relating to separase overexpression in Pediatric glioblastoma (GBM) and the effect of Sepin-1 in inhibiting the growth of glioblastoma cells in vitro and in vivo. […] SCID-beige mice after two weeks of transplantation were treated at a dose of 10 mg/kg daily ip for 5 days a week for 4 weeks with either Sepin-1 or vehicle (n=6/group).

NGP = experiment: MTT in vitro cytotoxicity assay; assay type: cell-based; details: Homo sapiens, Neuroblastoma, 72 h, read-out: IC50 growth inhibition
Protocol: (§1) The inhibitory effect of Sepin-1 on cell growth was assayed using the 3-(4,5-dimethylthiazol-2yl)-2,5-diphenyl-tetrazolium bromide (MTT) colorimetric dye reduction method (Cancer Chemother. Pharmacol., 2006, 58, 13-23). One hundred thirty-five μl of exponentially growing cancer cells were plated at a density of 0.4-1.0×10^5 cells/well in a 96-well microtiter plate. After 16 h, Sepin-1 at specified concentrations was added to each well. After 72 h of continuous drug exposure, 15 μl of 5 mg/ml MTT was added to each well and the plates were incubated for 4 h at 37° C. Medium was replaced with 150 μl of DMSO to solubilize the formazan, and the optical density (OD) was measured at 550 nm using a microplate spectrophotometer (Anthos Analytical, Durham, N.C., USA). Cell viability was calculated by subtracting the background OD of media alone from the OD of test wells, then dividing by the OD of the control (untreated) wells. Replicates of 3 wells were used for each drug concentration. The in vitro cytotoxicity assay was repeated once and the IC50 reported was the average of two independent experiments.

TT = experiment: MTT in vitro cytotoxicity assay; assay type: cell-based; details: Homo sapiens, Thyroid, 72 h, read-out: IC50 growth inhibition
Protocol: as §1

SK-BR-3 = experiment: MTT in vitro cytotoxicity assay; assay type: cell-based; details: Homo sapiens, SK-BR-3, Breast, 72 h, read-out: IC50 growth inhibition
Protocol: as §1

Molt4 = experiment: MTT in vitro cytotoxicity assay; assay type: cell-based; details: Homo sapiens, MOLT-4, Molt4, Leukemia, 72 h, read-out: IC50 growth inhibition
Protocol: as §1

LAN-5 = experiment: MTT in vitro cytotoxicity assay; assay type: cell-based; details: Homo sapiens, LA-N-5, LAN-5, Neuroblastoma, 72 h, read-out: IC50 growth inhibition
Protocol: as §1

Jurkat = experiment: MTT in vitro cytotoxicity assay; assay type: cell-based; details: Homo sapiens, Leukemia, 72 h, read-out: IC50 growth inhibition
Protocol: as §1

MCF10F = experiment: MTT in vitro cytotoxicity assay; assay type: cell-based; details: Homo sapiens, MCF-10F, Breast, 72 h, read-out: IC50 growth inhibition
Protocol: as §1

SK-N-BE(2) = experiment: MTT in vitro cytotoxicity assay; assay type: cell-based; details: Homo sapiens, SKNBE2, Neuroblastoma, 72 h, read-out: IC50 growth inhibition
Protocol: as §1

SK-N-AS = experiment: MTT in vitro cytotoxicity assay; assay type: cell-based; details: Homo sapiens, Neuroblastoma, 72 h, read-out: IC50 growth inhibition
Protocol: as §1

CHLA-02-ATRT = experiment: MTT in vitro cytotoxicity assay; assay type: cell-based; details: Homo sapiens, Brain, 72 h, read-out: IC50 growth inhibition
Protocol: as §1

KCNR = experiment: MTT in vitro cytotoxicity assay; assay type: cell-based; details: Homo sapiens, Neuroblastoma, 72 h, read-out: IC50 growth inhibition
Protocol: as §1

T47D = experiment: MTT in vitro cytotoxicity assay; assay type: cell-based; details: Homo sapiens, Breast, 72 h, read-out: IC50 growth inhibition
Protocol: as §1

MDAMB231 = experiment: MTT in vitro cytotoxicity assay; assay type: cell-based; details: Homo sapiens, MDA-MB-231, MDAMB231, Breast, 72 h, read-out: IC50 growth inhibition
Protocol: as §1

IMR-32 = experiment: MTT in vitro cytotoxicity assay; assay type: cell-based; details: Homo sapiens, IMR-32, Neuroblastoma, 72 h, read-out: IC50 growth inhibition
Protocol: as §1

A549 = experiment: MTT in vitro cytotoxicity assay; assay type: cell-based; details: Homo sapiens, A549, Lung, 72 h, read-out: IC50 growth inhibition
Protocol: as §1

HCT116 = experiment: MTT in vitro cytotoxicity assay; assay type: cell-based; details: Homo sapiens, HCT-116, HCT116, Colon, 72 h, read-out: IC50 growth inhibition
Protocol: as §1

HBL100 = experiment: MTT in vitro cytotoxicity assay; assay type: cell-based; details: Homo sapiens, HBL-100, HBL100, Breast, 72 h, read-out: IC50 growth inhibition
Protocol: as §1

Raji = experiment: MTT in vitro cytotoxicity assay; assay type: cell-based; details: Homo sapiens, Leukemia, 72 h, read-out: IC50 growth inhibition
Protocol: as §1

HL60 = experiment: MTT in vitro cytotoxicity assay; assay type: cell-based; details: Homo sapiens, HL-60, HL60, Leukemia, 72 h, read-out: IC50 growth inhibition
Protocol: as §1

SHEP = experiment: MTT in vitro cytotoxicity assay; assay type: cell-based; details: Homo sapiens, Neuroblastoma, 72 h, read-out: IC50 growth inhibition
Protocol: as §1

JM1 = experiment: MTT in vitro cytotoxicity assay; assay type: cell-based; details: Homo sapiens, JM1, Leukemia, 72 h, read-out: IC50 growth inhibition
Protocol: as §1

CHP212 = experiment: MTT in vitro cytotoxicity assay; assay type: cell-based; details: Homo sapiens, CHP-212, CHP212, Neuroblastoma, 72 h, read-out: IC50 growth inhibition
Protocol: as §1

SY5Y = experiment: MTT in vitro cytotoxicity assay; assay type: cell-based; details: Homo sapiens, Neuroblastoma, 72 h, read-out: IC50 growth inhibition
Protocol: as §1

MDA436 = experiment: MTT in vitro cytotoxicity assay; assay type: cell-based; details: Homo sapiens, MDA436, Breast, 72 h, read-out: IC50 growth inhibition
Protocol: as §1

Molt4 cells = experiment: Immunoblotting for apoptosis induction; assay type: cell-based, human; details: various concentrations of Sepin-1, 24 h, Western blot
Protocol: To determine the mechanism of cell growth inhibition induced by Sepin-1, Applicants performed immunoblotting to investigate if apoptosis is induced after Molt4 cells were treated with Sepin-1. Activation of caspase-3 and cleavage of poly(ADP-ribose) polymerase (Parp-1) are two commonly used parameters in determination of apoptosis. Applicants used Etoposide as a positive control, which is a well-known chemotherapy agent that induces DNA damage by interacting with topoisomerase II. […] In addition, Applicants observed that the effect of Sepin-1 on the activation of caspase-3 and degradation of Parp-1 is similar to that of Etoposide (FIG. 8F).
Preparation of protein samples and Western blot were performed as described previously (J Cell Biol, 2008, 183, 1019-1031; PLoS. ONE., 2013, 8, e69458).

Which results are given for `CC1(C)[N+]([O-])=c2ccc([N+](=O)[O-])cc2=[N+]1[O-]` [Sepin-1, 2,2-dimethyl-5-nitro-2H-benzimidazole-1,3 dioxide]?
cell death in MTT cytotoxicity assays [1]: efficient cell death; IC50 (NGP): 7.8 µM; IC50 (TT): 33.5 µM; IC50 (SK-BR-3): 9 µM; IC50 (Molt4): 3.2 µM; IC50 (LAN-5): 5 µM; IC50 (Jurkat): 14 µM; IC50 (MCF10F): 48.4 µM; IC50 (SK-N-BE(2)): 8.6 µM; IC50 (SK-N-AS): 17.1 µM; IC50 (CHLA-02-ATRT): 7.6 µM; IC50 (KCNR): 4.9 µM; IC50 (T47D): 30.8 µM; IC50 (MDAMB231): 21.5 µM; IC50 (IMR-32): 4.8 µM; IC50 (A549): 53.1 µM; IC50 (HCT116): 16 µM; IC50 (HBL100): 11.5 µM; IC50 (Raji): 4.4 µM; IC50 (HL60): 9 µM; IC50 (SHEP): 62.5 µM; IC50 (JM1): 1 µM; IC50 (CHP212): 9 µM; IC50 (SY5Y): 4.9 µM; IC50 (MDA436): 17.8 µM; activation of caspase-3 (Molt4 cells): caspase-3 proenzyme was induced and activated; cleavage of poly(ADP-ribose) polymerase (Parp-1) (Molt4 cells): Parp-1 cleavage
